Source: ChEMBL document CHEMBL1828532, “Synthesis and antitubercular evaluation of novel dibenzo[b,d]furan and 9-methyl-9H-carbazole derived hexahydro-2H-pyrano[3,2-c]quinolines via Povarov reaction” (Eur J Med Chem, 2011)
Values after ≈ are worked out from the molar mass of the structure shown.

Tests used:
[1] = system: Mycobacterium tuberculosis; assay: microbe, parasite or virus in culture; details: H37Rv, 672 h
Description: Antimycobacterial activity against Mycobacterium tuberculosis H37Rv after 28 days by agar dilution method

[2] = Lipophilicity, log P of the compound; type: physicochemical; details: octanol/water

Row | SMILES | MIC [1] [µg/mL] | logP [2]
1 | Cc1ccc2c(c1)[C@@H]1OCCC[C@@H]1[C@H](c1ccc3oc4ccccc4c3c1)N2 | 12.5 (≈ 33.8 µM) | 4.42
2 | Cn1c2ccccc2c2cc([C@H]3Nc4ccc(F)cc4[C@@H]4OCCC[C@H]34)ccc21 | 3.13 (≈ 8.1 µM) | 4.25
3 | Cn1c2ccccc2c2cc([C@H]3Nc4ccccc4[C@@H]4OCCC[C@H]34)ccc21 (relative stereo) | 12.5 (≈ 33.9 µM) | 4.1
4 | c1ccc2c(c1)N[C@@H](c1ccc3oc4ccccc4c3c1)[C@H]1CCCO[C@@H]21 (relative stereo) | 25 (≈ 70.3 µM) | 3.92
5 | c1ccc2c(c1)N[C@H](c1ccc3oc4ccccc4c3c1)[C@H]1CCCO[C@@H]21 (relative stereo) | 25 (≈ 70.3 µM) | 3.92
6 | Cc1ccc2c(c1)[C@@H]1OCCC[C@@H]1[C@@H](c1ccc3oc4ccccc4c3c1)N2 (relative stereo) | 12.5 (≈ 33.8 µM) | 4.42
7 | COc1ccc2c(c1)[C@@H]1OCCC[C@@H]1[C@H](c1ccc3oc4ccccc4c3c1)N2 (relative stereo) | 12.5 (≈ 32.4 µM) | 3.81
8 | COc1ccc2c(c1)[C@@H]1OCCC[C@@H]1[C@@H](c1ccc3oc4ccccc4c3c1)N2 (relative stereo) | 12.5 (≈ 32.4 µM) | 3.81
9 | Clc1ccc2c(c1)[C@@H]1OCCC[C@@H]1[C@H](c1ccc3oc4ccccc4c3c1)N2 (relative stereo) | 25 (≈ 64.1 µM) | 4.49
10 | Clc1ccc2c(c1)[C@@H]1OCCC[C@@H]1[C@@H](c1ccc3oc4ccccc4c3c1)N2 (relative stereo) | 6.25 (≈ 16 µM) | 4.49
11 | Brc1ccc2c(c1)[C@@H]1OCCC[C@@H]1[C@H](c1ccc3oc4ccccc4c3c1)N2 (relative stereo) | 12.5 (≈ 28.8 µM) | 4.76
12 | Brc1ccc2c(c1)[C@@H]1OCCC[C@@H]1[C@@H](c1ccc3oc4ccccc4c3c1)N2 (relative stereo) | 6.25 (≈ 14.4 µM) | 4.76
13 | Fc1ccc2c(c1)[C@@H]1OCCC[C@@H]1[C@H](c1ccc3oc4ccccc4c3c1)N2 (relative stereo) | 3.13 (≈ 8.38 µM) | 4.09
14 | Fc1ccc2c(c1)[C@@H]1OCCC[C@@H]1[C@@H](c1ccc3oc4ccccc4c3c1)N2 (relative stereo) | 3.13 (≈ 8.38 µM) | 4.09
15 | Cn1c2ccccc2c2cc([C@@H]3Nc4ccccc4[C@@H]4OCCC[C@H]34)ccc21 (relative stereo) | 25 (≈ 67.8 µM) | 4.1
16 | Cc1ccc2c(c1)[C@@H]1OCCC[C@@H]1[C@H](c1ccc3c(c1)c1ccccc1n3C)N2 (relative stereo) | 25 (≈ 65.4 µM) | 4.58
17 | Cc1ccc2c(c1)[C@@H]1OCCC[C@@H]1[C@@H](c1ccc3c(c1)c1ccccc1n3C)N2 (relative stereo) | 25 (≈ 65.4 µM) | 4.58
18 | COc1ccc2c(c1)[C@@H]1OCCC[C@@H]1[C@@H](c1ccc3c(c1)c1ccccc1n3C)N2 (relative stereo) | 25 (≈ 62.7 µM) | 3.97
19 | Cn1c2ccccc2c2cc([C@@H]3Nc4ccc(Cl)cc4[C@@H]4OCCC[C@H]34)ccc21 (relative stereo) | 12.5 (≈ 31 µM) | 4.65
20 | Cn1c2ccccc2c2cc([C@H]3Nc4ccc(Cl)cc4[C@@H]4OCCC[C@H]34)ccc21 (relative stereo) | 6.25 (≈ 15.5 µM) | 4.65
21 | Cn1c2ccccc2c2cc([C@@H]3Nc4ccc(Br)cc4[C@@H]4OCCC[C@H]34)ccc21 (relative stereo) | 25 (≈ 55.9 µM) | 4.93
22 | Cn1c2ccccc2c2cc([C@H]3Nc4ccc(Br)cc4[C@@H]4OCCC[C@H]34)ccc21 (relative stereo) | 6.25 (≈ 14 µM) | 4.93
23 | Cn1c2ccccc2c2cc([C@@H]3Nc4ccc(F)cc4[C@@H]4OCCC[C@H]34)ccc21 (relative stereo) | 6.25 (≈ 16.2 µM) | 4.25
24 | CC[C@@H](CO)NCCN[C@@H](CC)CO [ETHAMBUTOL] | 3.13 (≈ 15.3 µM) | –
25 | NNC(=O)c1ccncc1 [ISONIAZID] | 0.1 (≈ 0.729 µM) | –
26 | CO[C@H]1/C=C/O[C@@]2(C)Oc3c(C)c(O)c4c(O)c(c(/C=N/N5CCN(C)CC5)c(O)c4c3C2=O)NC(=O)/C(C)=C\C=C\[C@H](C)[C@H](O)[C@@H](C)[C@@H](O)[C@@H](C)[C@H](OC(C)=O)[C@@H]1C [RIFAMPIN] | 0.2 (≈ 0.243 µM) | –
